“And” between values parts separate entries of the source, which are not always exact repeats. Equal entries are not always repeated.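 The compound was tested at five concentrations on cells cultured in 96-well plates, with a 48-hour exposure period. The concentration for 50% growth inhibition is given as GI50. TGI is the concentration that stops growth completely.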
Key:
Assay in all cases: inhibition of tumour cell growth, NCI panel, 48 h
786-0 renal = tested on: 786-0 renal
A498 renal = tested on: A498 renal
A549 NSCLC = tested on: A549 NSCLC
LXFL 529 NSCLC = tested on: LXFL 529 NSCLC
M19-MEL melanoma = tested on: M19-MEL melanoma
OVCAR-8 ovarian = tested on: OVCAR-8 ovarian
OVCAR-3 ovarian = tested on: OVCAR-3 ovarian
SR leukemia = tested on: SR leukemia
MDA-MB-231 breast = tested on: MDA-MB-231 breast
MDA-MB-435 = tested on: MDA-MB-435

Row | Compound | GI50 (786-0 renal) [µM] | TGI (786-0 renal) [µM] | GI50 (A498 renal) [µM] | TGI (A498 renal) | TGI (A549 NSCLC) [µM] | TGI (LXFL 529 NSCLC) [µM] | TGI (M19-MEL melanoma) [µM] | GI50 (OVCAR-8 ovarian) [µM] | TGI (OVCAR-8 ovarian) [µM] | TGI (OVCAR-3 ovarian) | TGI (SR leukemia) [µM] | GI50 (M19-MEL melanoma) [µM] | GI50 (A549 NSCLC) [µM] | GI50 (LXFL 529 NSCLC) [µM] | GI50 (OVCAR-3 ovarian) [µM] | GI50 (SR leukemia) [µM] | GI50 (MDA-MB-231 breast) [µM] | TGI (MDA-MB-231 breast) [µM] | GI50 (MDA-MB-435) [µM] | TGI (MDA-MB-435) [µM]
1 | CC(C)(c1ccccc1)c1ccc(Oc2ccc(C#N)c(C#N)c2)cc1 | > 100 | > 100 | > 100 | > 100 µM | > 100 | > 100 | > 100 | > 100 | > 100 | – | – | – | – | – | – | – | – | – | – | –
2 | O=C(O)c1nc(-c2ccc(Cl)c(Cl)c2)nc2ccc(Cl)cc12 | – | > 100 | – | > 100 µM | > 100 | > 100 | > 100 | – | > 100 | > 100 µM | > 100 | – | – | – | – | – | – | – | – | –
3 | CC(=O)O[C@H]1CCC2[C@@H]3CCC4c5nonc5CC[C@]4(C)C3CC[C@@]21C (stereo partly drawn) | – | > 10 | – | > 10 µM | > 10 | > 10 | > 100 | – | > 10 | – | – | > 100 | – | – | – | – | – | – | – | –
4 | CCOC(=O)/C(O)=C(/C(=O)OC)c1ccc(Cl)cc1 | – | > 100 | – | > 100 µM | > 100 | > 100 | > 100 | – | > 100 | > 100 µM | – | – | – | – | – | – | – | – | – | –
5 | CN(C)C(=O)c1ccc([N+](=O)[O-])cc1 | – | > 100 | – | > 100 µM | > 100 | > 100 | > 100 | – | > 100 | > 100 µM | > 100 | – | – | – | – | – | – | – | – | –
6 | CNC(=O)OCc1c2ccncc2c(C)c2c1[nH]c1ccc(OC)cc12 | – | 0.494 | – | 0.458 µM | > 100 | 0.37 | 1.68 | – | > 100 | > 100 µM | – | – | – | – | – | – | – | – | – | –
7 | C[CH2][Sn]([CH2]C)([O]C(=O)c1ccccc1F)[O][Sn]([CH2]C)([CH2]C)[O]C(=O)c1ccccc1F | 25.2 | > 56.6 | 22.5 | 37.4 µM | > 100 | 22.1 | > 100 | > 62 | > 100 | > 56.3 µM | > 100 | 28.6 | > 100 | 9.79 | > 42 | 34.6 | – | – | – | –
8 | O=c1c(O)c(-c2ccc(O)c(O)c2)oc2cc(O)cc(O)c12 | 21.9 | > 100 | 7.11 | 24.2 µM and > 100 µM | > 100 | > 100 | > 100 | 14.1 | > 100 | 49.2 µM and > 100 µM | > 100 | – | 19.3 | – | 16 | 3.57 | 9.36 | > 100 | 5.08 | > 100
9 | O=S(=O)(/C=C/CS(=O)(=O)c1ccccc1)c1ccccc1 | – | 55.6 | – | 82.3 µM | 60.8 | > 100 | > 100 | – | 32.5 | 84.7 µM | 36.4 | – | – | – | – | – | – | – | – | –
10 | COC(=O)C(CC1=C(O)Nc2ccccc2N1)/C(=N/NC(N)=O)C(=O)Nc1ccccc1C (stereo not drawn) | – | > 100 | – | > 100 µM | > 100 | > 100 | > 100 | – | > 100 | > 100 µM | 48.5 | – | – | – | – | – | – | – | – | –
11 | CCN(CC)c1oc(N(CC)CC)c(C(=O)Nc2ccccn2)c(=O)c1C(C)=O | – | > 100 | – | > 100 µM | > 100 | > 100 | > 100 | – | > 100 | > 100 µM | > 100 | – | – | – | – | – | – | – | – | –
12 | O=C(NC(=Nc1ccccc1)SCCSC(=Nc1ccccc1)NC(=O)c1cccs1)c1cccs1 | – | > 100 | – | > 100 µM | > 100 | > 100 | > 100 | – | > 100 | > 100 µM | – | – | – | – | – | – | – | – | – | –
13 | COc1ccc(CC2(Cc3ccc(OC)cc3)CCOC2=O)cc1 | – | > 100 | – | > 100 µM | > 100 | > 100 | > 100 | – | > 100 | > 100 µM | > 100 | – | – | – | – | – | – | – | – | –
14 | CCOc1ccc(NC(=O)C(=O)C(C(=O)c2ccc3ccccc3c2)C2OC(=O)c3ccccc32)cc1 (stereo not drawn) | – | 40.5 | – | 45.8 µM | > 100 | 37.4 | 34.6 | – | > 100 | 86.8 µM | – | – | – | – | – | – | – | – | – | –
15 | COc1cccc(NC(=O)CC(=O)N2N=C(n3ccc4ccccc43)CC2c2ccccc2)c1 (stereo not drawn) | – | > 100 | – | > 100 µM | > 100 | > 100 | > 100 | – | > 100 | > 100 µM | – | – | – | – | – | – | – | – | – | –
16 | O=C(N/C(=C\c1ccc(/C=C(\NC(=O)c2ccccc2)c2nc3ccccc3[nH]2)cc1)c1nc2ccccc2[nH]1)c1ccccc1 | – | > 100 | – | > 100 µM | > 100 | > 100 | > 100 | – | > 100 | > 100 µM | – | – | – | – | – | – | – | – | – | –
17 | CC(=O)[CH-]C(=O)c1ccccc1.CC(=O)[CH-]C(=O)c1ccccc1.CC(=O)[CH-]C(=O)c1ccccc1.[In+3] | 61.5 | > 100 | 23.2 | 56.8 µM | > 100 | > 100 | > 100 | 24.9 | > 100 | > 100 µM | – | 28.8 | 48.8 | 25.5 | 78 | – | – | – | – | –
18 | C[C@]12CCC(=O)CC1CCCC2=O (stereo partly drawn) | – | > 100 | – | > 100 µM | > 100 | > 100 | > 100 | – | > 100 | > 100 µM | – | – | – | – | – | – | – | – | – | –
19 | CCc1ccccc1NC(=O)/C(N=O)=C(/C)O | – | > 100 | – | > 100 µM | > 100 | > 100 | > 100 | – | > 100 | > 100 µM | – | – | – | – | – | – | – | – | – | –
20 | CC1(C)CC2CC(CC(C)(C)C2=O)C1=O | – | > 100 | – | > 100 µM | > 100 | > 100 | > 100 | – | > 100 | > 100 µM | > 100 | – | – | – | – | – | – | – | – | –
21 | O=C1C(c2cnc3ccccc3n2)=C(O)c2ccccc21 | – | > 100 | – | > 100 µM | > 100 | > 100 | > 100 | – | > 100 | > 100 µM | > 100 | – | – | – | – | – | – | > 100 | – | > 100
22 | CCc1cccc(C)c1NC(=O)C1=C(C)NC(C)=C(C(=O)Nc2c(C)cccc2CC)C1c1ccc2c(c1)OCO2 | – | 33.2 | – | 34.6 µM | 43.6 | 39.9 | 45.6 | – | > 100 | 39.8 µM | – | – | – | – | – | – | – | – | – | –
23 | COc1ccc2nc3cc(Cl)ccc3c(SCC(=O)Nc3ccccc3-c3ccccc3NC(=O)CSc3c4ccc(Cl)cc4nc4ccc(OC)cc34)c2c1 | – | > 100 | – | > 100 µM | > 100 | > 100 | > 100 | – | > 100 | > 100 µM | – | – | – | – | – | – | – | – | – | –
24 | CCCN(CCC)C(=O)C(=O)c1c(N)[nH]n(-c2ccccc2)c1=O | – | > 100 | – | > 100 µM | > 100 | > 100 | > 100 | – | > 100 | > 100 µM | – | – | – | – | – | – | – | – | – | –
25 | COC(=N)c1c(N)[n+]([O-])c2ccc(F)cc2[n+]1[O-] | > 100 | > 100 | 40.4 | > 100 µM | > 100 | – | – | > 100 | > 100 | > 100 µM | > 100 | – | > 100 | – | > 100 | 47.9 | > 100 | > 100 | > 100 | > 100

From PubChem BioAssay (NCI)
